“Also recorded” adds a separate entry of the source.
Experiments:
[1] = system: murine CD4+ CD25− T cells, CD8+ T cells, B cells; conditions: high concentrations; PCT/US08/09774; cited from earlier work
[2] = system: GCN2 phosphorylation / AAR pathway; assay: AAR pathway activation in MEFs (GCN2, eIF2a phosphorylation, CHOP); type: cell-based, mouse
Method: FIG. 24. Activation of the AAR in cells by HF/FF occurs through inhibition of proline utilization. FIG. 24A is a gel showing HF-induction of the AAR pathway is reversed by proline. MEFs were treated with the indicated concentration of HF or FF in the presence or absence of 2 mM Proline for 2 hours (left) or treated with 1 μM borrelidin in the presence or absence of 2 mM Threonine for 2 hours (right). Cells were lysed and assessed by anti-pGCN2 or anti-GCN2 Western blot. Data are representative of three separate experiments.
FIG. 24B is a gel showing HF induction of eIF2a phosphorylation and CHOP expression is GCN2 dependent. Wild Type or GCN2−/− MEFs were treated with 50 nM HF in the presence or absence of 2 mM proline. Cells were lysed at 2 hours post-HF addition (peIF2a) or 6 hours post-HF addition (CHOP) and analyzed for phosphoprotein or total protein levels by Western blot.

[3] = type: in vitro ADME; conditions: mouse, 2 h, 20 nM
Method: MEFs were incubated with the indicated concentration of HF in the presence or absence of 2 mM proline for 2 hours and then lysed. Lysates were then tested for HF levels in comparison to a standard curve using known concentrations of HF with an anti-HF antibody based ELISA assay (see Example 9, “Materials and Methods”). Error bars reflect standard deviation of triplicate determinations. Similar results were obtained in three separate experiments.
Polyclonal anti-HF antibody was raised by immunizing rabbits with KLH coupled to an HF derivative (MAZ1356) containing a linker attached to the quinazolinone and terminated by a primary amino group. Crude antibody was affinity purified using MAZ1356 linked to NHS-agarose. For the ELISA assay, MAZ1356 was coupled to 96-well Reacti-bind Plates (Pierce). After binding, plates were blocked with 10% goat serum in PBS/0.2% Tween-20 (PBST). […] Captured antibody was quantitated using TMB based colorimetric detection (Pierce), and a standard curve for HF concentration fitted from the colorimetric data. […] To determine HF concentration in cells, 8 μl of cleared lysate (or control buffer) was incubated with anti-HF antibody in MAZ1356 bound wells, and captured antibody detected and quantitated as described above. HF concentration was then determined by fitting colorimetry results with cell samples to a standard curve of HF concentration. […]

[4] = system: adjuvant-driven EAE in wild-type B6 mice; assay: Adjuvant-driven EAE (MOG33-55 immunization); type: in vivo, mouse
Excerpt: The ability of systemic HF treatment to block IL-17 expression and associated autoimmune inflammation in vivo was examined using two distinct models of experimental autoimmune encephalomyelitis (EAE). […] The second model, a passive model of EAE induction, is initiated by the transfer of myelin proteolipid protein (PLP)-reactive T cells into lymphopenic hosts.
Adjuvant-driven EAE was induced in 8 week-old wild-type B6 mice purchased from Charles River laboratories (Kingston, N.Y.) by subcutaneous injection of […] peptide emulsified in Incomplete Freund's Adjuvant (IFA) plus 5 mg/ml heat-killed M. tuburculosis (BD Biosciences) in both dorsal flanks as described in Veldhoen et al. (Nat. Immunol. 7(11):1151-1156, 2006).
Mice were injected daily with HF (2 μg/mouse) or vehicle control (DMSO) i.p. Clinical signs of EAE were assessed according to the following score: 0, no signs of disease; 1, flaccid tail; 2, weak gait/hind limb paresis; 3, hind limb paralysis; 4, tetraplegia; 5, moribund. Cytokine production during EAE was determined either in peripheral T cells isolated from spleen or lymph nodes of mice prior to disease onset (day 6-10) or in mononuclear cells isolated from the brain and spinal cords of mice with severe disease (clinical score ≧2) between days 15-20. Briefly, splenocytes were stained for intracellular cytokines following erythrocyte lysis with ammonium chloride buffer. T cells were isolated from brain and spinal cords of mice with active EAE following perfusion with cold PBS. Minced CNS tissue was digested with liberase C1 (0.33 mg/ml, Roche Diagnostics) or collagenase D (10 mg/ml, Roche Diagnostics) at 37° C. for 30-45 minutes. Cell suspensions were passed through 70 μm cell strainers (VWR) and fractionated by 70%/30% Percoll gradient centrifugation. Mononuclear cells were collected from the interphase, washed and used for intracellular cytokine analysis.

SV-MES mesangial cells = assay: AAR activation in SV-MES mesangial (fibroblastic) cells; type: cell-based; conditions: 2 hours
Method: FIG. 11. HF induces a stress response in fibroblasts. SV-MES mesangial cells were stimulated for 2 hours with DMSO, 20 nM MAZ1310, or 20 nM HF. Whole cell lysates were analyzed for expression of phosphorylated or total eIF2α by western blotting.
Duplicate cell samples are shown. […] Activated GCN2 phosphorylates eif2alpha at Ser 51; therefore, this is an expected downstream outcome of AAR activation.

[5] = 2 μg HF daily, ˜0.1 mg/kg, i.p.

Structure (SMILES): O=C(CC1NCCCC1O)Cn1cnc2cc(Br)c(Cl)cc2c1=O (racemic) [HF, halofuginone]
- concentrations generally inhibiting CD4+ T cell, CD8+ T cell, and B220+ B cell activation [1]: 20 to 40 nM
- eIF2-alpha phosphorylation and CHOP induction in wild type vs GCN2−/− fibroblasts ([2]; 50 nM HF): absent in GCN2−/− fibroblasts
- reversal of GCN2 phosphorylation by cognate amino acid ([2]; 2 mM proline or 2 mM threonine): abrogated by the addition of 2 mM proline
- GCN2 phosphorylation in fibroblasts ([2]; 2 hours, borrelidin 1 μM): Stimulation of GCN2 phosphorylation
- absolute HF concentration inside cells [3]: ~800 nM
- CD4+ T cell infiltrates into the CNS ([4]; 2 μg HF daily i.p.): overall reduction
- IFNγ expression in the same T cell populations ([4]; 2 μg HF daily i.p.): did not affect IFNγ expression; also recorded: had no effect on the number of IFNγ T-cells
- T cell-derived IL-17 expression in lymph nodes and CNS tissue ([4]; 2 μg HF daily i.p.): reduction; also recorded: selectively reduced the number of IL-17 expressing T cells
- frequency of disease onset [4, 5]: significantly reduced
- severity of adjuvant-driven EAE disease [4, 5]: significantly reduced
- clinical score of mice analysed ([4]; 17 days after immunization with MOG): 0
- clinical score of mice analysed ([4]; day 18): 0
- eIF2α phosphorylation in cultured fibroblasts (SV-MES mesangial cells; 20 nM HF): increased eIF2α phosphorylation
- GCN2 Thr898 phosphorylation (SV-MES mesangial cells; 20 nM): activation of GCN2 phosphorylation

— US20120058133A1, “INHIBITION OF TRNA SYNTHETASES AND THERAPEUTIC APPLICATIONS THEREOF” (President and Fellows of Harvard College, priority 2009, published 2012)
